Source: US20260130395A1, “Water Dispersible Botanical Compositions” (Aquila Black Limited, priority 2021, published 2026)

Experiments:
[1] = Stability of cannabinoid entourage and Vitamin E components of the powder concentrate by LCMSMS; assay type: physicochemical; conditions: powder stored at 21-25° C.
Method: At each time period, 0.05 g of powder was dissolved in 10 ml-15 of ethanol, diluted to fall within the analytical range, and injected into the LCMSMS for analysis.

[2] = Stability of cannabinoid compounds and Vitamin E components in Beverage 1 (AB White) by LCMSMS; assay type: physicochemical; conditions: stored at 8° C.

For `CC(=O)Oc1c(C)c(C)c2c(c1C)CCC(C)(CCC[C@H](C)CCC[C@H](C)CCCC(C)C)O2` (stereo partly drawn) [α-Tocopheryl acetate], the “Stability of Vitamin Es in Powder Concentrate” value ([1]; 0 days) was 2.15 mg/g powder, the “Stability of Vitamin Es in Powder Concentrate” value ([1]; 1 days) was 2.19 mg/g powder and the “Stability of Vitamin Es in Powder Concentrate” value ([1]; 2 days) was 2.11 mg/g powder. For the same compound, the “Stability of Vitamin Es in Powder Concentrate” value ([1]; 3 days) was 2.18 mg/g powder, the “Stability of Vitamin Es in Powder Concentrate” value ([1]; 5 days) was 2.24 mg/g powder and the “Stability of Vitamin Es in Powder Concentrate” value ([1]; 8 days) was 2.23 mg/g powder. The “Stability of Vitamin Es in Powder Concentrate” value ([1]; 9 days) was 2.09 mg/g powder, the “Stability of Vitamin Es in Powder Concentrate” value ([1]; 10 days) was 2.09 mg/g powder and the “Stability of Vitamin Es in Powder Concentrate” value ([1]; 11 days) was 2.20 mg/g powder. For the same compound, the “Stability of Vitamin Es in Powder Concentrate” value ([1]; 12 days) was 2.17 mg/g powder, the “Stability of Vitamin Es in Powder Concentrate” value ([1]; 15 days) was 2.24 mg/g powder and the “Stability of Vitamin Es in Powder Concentrate” value ([1]; 16 days) was 2.15 mg/g powder. The “Stability of Vitamin Es in Powder Concentrate” value ([1]; 17 days) was 2.13 mg/g powder, the “Stability of Vitamin Es in Powder Concentrate” value ([1]; 18 days) was 2.10 mg/g powder and the “Stability of Vitamin Es in Powder Concentrate” value ([1]; 19 days) was 2.21 mg/g powder. The “Stability of Vitamin Es in Powder Concentrate” value ([1]; 22 days) was 2.11 mg/g powder, the “Stability of Vitamin Es in Powder Concentrate” value ([1]; 23 days) was 2.16 mg/g powder and the “Stability of Vitamin Es in Powder Concentrate” value ([1]; 24 days) was 2.09 mg/g powder. For the same compound, the “Stability of Vitamin Es in Powder Concentrate” value ([1]; 25 days) was 2.24 mg/g powder, the “Stability of Vitamin Es in Powder Concentrate” value ([1]; 26 days) was 2.10 mg/g powder and the “Stability of Vitamin Es in Powder Concentrate” value ([1]; 29 days) was 2.21 mg/g powder. The “Stability of Vitamin Es in Powder Concentrate” value ([1]; 30 days) was 2.08 mg/g powder, the “Stability of Vitamin Es in Powder Concentrate” value ([1]; 60 days) was 2.15 mg/g powder and the “Stability of Vitamin Es in Powder Concentrate” value ([1]; 90 days) was 2.24 mg/g powder. For the same compound, the “Stability of Vitamin Es in Powder Concentrate” value ([1]; 120 days) was 2.17 mg/g powder, the “Stability of Vitamin Es in Powder Concentrate” value ([1]; 150 days) was 2.18 mg/g powder and the “Stability of Vitamin Es in Powder Concentrate” value ([1]; 180 days) was 2.20 mg/g powder. For the same compound, the “Stability of Vitamin Es in Powder Concentrate” value ([1]; 210 days) was 2.15 mg/g powder, the “Stability of Vitamin Es in Powder Concentrate” value ([1]; 240 days) was 2.23 mg/g powder and the “Stability of Vitamin Es in Powder Concentrate” value ([1]; 270 days) was 2.13 mg/g powder. For the same compound, the “Stability of Vitamin Es in Powder Concentrate” value ([1]; 300 days) was 2.09 mg/g powder, the “Stability of Vitamin Es in Powder Concentrate” value ([1]; 330 days) was 2.15 mg/g powder and the “Stability of Vitamin Es in Powder Concentrate” value ([1]; 360 days) was 2.12 mg/g powder. For the same compound, the “Stability of Vitamin Es in Powder Concentrate” value ([1]; 390 days) was 2.21 mg/g powder, the “Stability of Vitamin Es in Powder Concentrate” value ([1]; 420 days) was 2.21 mg/g powder and the “Stability of Vitamin Es in Powder Concentrate” value ([1]; 450 days) was 2.07 mg/g powder. The “Stability of Vitamin Es in Powder Concentrate” value ([1]; 480 days) was 2.10 mg/g powder, the “Stability of Vitamin Es in Powder Concentrate” value ([1]; 510 days) was 2.15 mg/g powder and the “Stability of Vitamin Es in Powder Concentrate” value ([1]; 540 days) was 2.21 mg/g powder. The “Stability of Vitamin Es in Powder Concentrate” value ([1]; 570 days) was 2.13 mg/g powder, the “Stability of Vitamin Es in AB White” value ([2]; 0 days) was 12.3 µg/mL and the “Stability of Vitamin Es in AB White” value ([2]; 1 days) was 12.04 µg/mL. The “Stability of Vitamin Es in AB White” value ([2]; 2 days) was 12.47 µg/mL, the “Stability of Vitamin Es in AB White” value ([2]; 3 days) was 11.99 µg/mL and the “Stability of Vitamin Es in AB White” value ([2]; 5 days) was 11.61 µg/mL. For the same compound, the “Stability of Vitamin Es in AB White” value ([2]; 8 days) was 12.48 µg/mL, the “Stability of Vitamin Es in AB White” value ([2]; 9 days) was 11.88 µg/mL and the “Stability of Vitamin Es in AB White” value ([2]; 10 days) was 12.13 µg/mL. For the same compound, the “Stability of Vitamin Es in AB White” value ([2]; 11 days) was 11.83 µg/mL, the “Stability of Vitamin Es in AB White” value ([2]; 12 days) was 12.31 µg/mL and the “Stability of Vitamin Es in AB White” value ([2]; 15 days) was 12.42 µg/mL. For the same compound, the “Stability of Vitamin Es in AB White” value ([2]; 16 days) was 11.35 µg/mL, the “Stability of Vitamin Es in AB White” value ([2]; 17 days) was 11.49 µg/mL and the “Stability of Vitamin Es in AB White” value ([2]; 18 days) was 11.83 µg/mL. The “Stability of Vitamin Es in AB White” value ([2]; 19 days) was 12.41 µg/mL, the “Stability of Vitamin Es in AB White” value ([2]; 22 days) was 11.27 µg/mL and the “Stability of Vitamin Es in AB White” value ([2]; 23 days) was 11.93 µg/mL. The “Stability of Vitamin Es in AB White” value ([2]; 24 days) was 12.02 µg/mL, the “Stability of Vitamin Es in AB White” value ([2]; 25 days) was 12.24 µg/mL and the “Stability of Vitamin Es in AB White” value ([2]; 26 days) was 12.03 µg/mL.
